# Experimental data: publication PMC5218480 (PLoS ONE, 2017)
# Test system: MV-4-11 cells
# Assay: Gene expression microarray analysis (Affymetrix PrimeView) and GSEA
# Assay type: cell-based, human
# Parameters: RFU PODN (11730768_x_at) / Fold change /veh PODN (11730768_x_at) / RFU LINC00158 (11744669_a_at) / Fold change /veh LINC00158 (11744669_a_at) / RFU DUSP10 (11751237_a_at) / Fold change /veh DUSP10 (11751237_a_at) / RFU ID3 (11757404_x_at) / Fold change /veh ID3 (11757404_x_at) / RFU PLEKHG5 (11737974_s_at) / Fold change /veh PLEKHG5 (11737974_s_at) / RFU LRRC4B (11730491_at) / Fold change /veh LRRC4B (11730491_at) / RFU GIMAP4 (11747438_a_at) / Fold change /veh GIMAP4 (11747438_a_at) / RFU KRT8 (11758183_x_at) / Fold change /veh KRT8 (11758183_x_at) / RFU CNN1 (11734310_a_at) / Fold change /veh CNN1 (11734310_a_at) / RFU VPS37D (11726825_at) / Fold change /veh VPS37D (11726825_at) / RFU C10orf10 (11716522_x_at) / Fold change /veh C10orf10 (11716522_x_at) / RFU KIR2DL2 /// KIR2DL4 /// KIR2DL5A /// KIR2DL5B /// KIR2DS1 /// KIR2DS2 /// KIR2DS3 /// KIR2DS4 /// KIR3DL3 /// KIR3DL3 /// KIR3DS1 (11738374_at) / Fold change /veh KIR2DL2 /// KIR2DL4 /// KIR2DL5A /// KIR2DL5B /// KIR2DS1 /// KIR2DS2 /// KIR2DS3 /// KIR2DS4 /// KIR3DL3 /// KIR3DL3 /// KIR3DS1 (11738374_at) / RFU C1QL1 (11718748_at) / Fold change /veh C1QL1 (11718748_at) / RFU TMPRSS4 (11747572_a_at) / Fold change /veh TMPRSS4 (11747572_a_at) / RFU HAMP (11756126_x_at) / Fold change /veh HAMP (11756126_x_at) / RFU RNFT2 (11725882_a_at) / Fold change /veh RNFT2 (11725882_a_at) / RFU NR4A2 (11747474_a_at) / Fold change /veh NR4A2 (11747474_a_at) / RFU ABCC12 (11746883_a_at) / Fold change /veh ABCC12 (11746883_a_at) / RFU TMEM136 (11760407_x_at) / Fold change /veh TMEM136 (11760407_x_at) / RFU CLDN22 /// WWC2 (11732394_at) / Fold change /veh CLDN22 /// WWC2 (11732394_at) / RFU HLA-DPB1 (11760878_x_at) / Fold change /veh HLA-DPB1 (11760878_x_at) / RFU SPINT1 (11716480_a_at) / Fold change /veh SPINT1 (11716480_a_at) / RFU GAP43 (11754022_s_at) / Fold change /veh GAP43 (11754022_s_at) / RFU A4GNT (11735810_at) / Fold change /veh A4GNT (11735810_at) / RFU PRB3 (11715151_x_at) / Fold change /veh PRB3 (11715151_x_at) / RFU TUBB4B (11761932_at) / Fold change /veh TUBB4B (11761932_at) / RFU CAPN14 (11732068_a_at) / Fold change /veh CAPN14 (11732068_a_at) / RFU TMCC2 (11721928_a_at) / Fold change /veh TMCC2 (11721928_a_at) / RFU IRGQ (11745062_a_at) / Fold change /veh IRGQ (11745062_a_at) / RFU FAM174B (11720279_a_at) / Fold change /veh FAM174B (11720279_a_at) / RFU TMPRSS4 (11748680_a_at) / Fold change /veh TMPRSS4 (11748680_a_at) / RFU FAM212B (11763350_a_at) / Fold change /veh FAM212B (11763350_a_at) / RFU PLEKHG5 (11743358_a_at) / Fold change /veh PLEKHG5 (11743358_a_at) / RFU ZSCAN30 (11745921_a_at) / Fold change /veh ZSCAN30 (11745921_a_at) / RFU CMKLR1 (11741424_a_at) / Fold change /veh CMKLR1 (11741424_a_at) / RFU LOC101060620 /// MAPK8IP1 (11723275_at) / Fold change /veh LOC101060620 /// MAPK8IP1 (11723275_at) / RFU SPTSSB (11747773_x_at) / Fold change /veh SPTSSB (11747773_x_at) / RFU PRSS12 (11739890_at) / Fold change /veh PRSS12 (11739890_at) / RFU BIN1 (11741810_x_at) / Fold change /veh BIN1 (11741810_x_at) / RFU WNT11 (11732464_a_at) / Fold change /veh WNT11 (11732464_a_at) / RFU C10orf10 (11716521_a_at) / Fold change /veh C10orf10 (11716521_a_at) / RFU C5orf56 (11738089_at) / Fold change /veh C5orf56 (11738089_at) / RFU CYB561 (11721691_x_at) / Fold change /veh CYB561 (11721691_x_at) / RFU ANKRD19P (11752326_a_at) / Fold change /veh ANKRD19P (11752326_a_at) / RFU OR2T12 /// OR2T33 /// OR2T8 (11738714_s_at) / Fold change /veh OR2T12 /// OR2T33 /// OR2T8 (11738714_s_at) / RFU VCAN (11748164_a_at) / Fold change /veh VCAN (11748164_a_at) / RFU JSRP1 (11732532_at) / Fold change /veh JSRP1 (11732532_at) / RFU KRTAP10-11 (11738290_x_at) / Fold change /veh KRTAP10-11 (11738290_x_at) / RFU MYO3A (11730013_a_at) / Fold change /veh MYO3A (11730013_a_at) / RFU EBF3 (11725865_a_at) / Fold change /veh EBF3 (11725865_a_at) / RFU CAMK2N1 (11719241_x_at) / Fold change /veh CAMK2N1 (11719241_x_at) / RFU C5orf56 (11738088_a_at) / Fold change /veh C5orf56 (11738088_a_at) / RFU OLFML3 (11715873_a_at) / Fold change /veh OLFML3 (11715873_a_at) / RFU LOC100653217 /// NTM (11731650_a_at) / Fold change /veh LOC100653217 /// NTM (11731650_a_at) / RFU MAPK11 (11762145_a_at) / Fold change /veh MAPK11 (11762145_a_at) / RFU FIZ1 (11724087_x_at) / Fold change /veh FIZ1 (11724087_x_at) / RFU OASL (11726364_x_at) / Fold change /veh OASL (11726364_x_at) / RFU SOX15 (11748057_x_at) / Fold change /veh SOX15 (11748057_x_at) / RFU CD79A (11719716_a_at) / Fold change /veh CD79A (11719716_a_at) / RFU HIST1H1D (11736915_at) / Fold change /veh HIST1H1D (11736915_at) / RFU CASKIN2 (11723855_a_at) / Fold change /veh CASKIN2 (11723855_a_at) / RFU LOC730098 (11760151_x_at) / Fold change /veh LOC730098 (11760151_x_at) / RFU OR4N2 (11742367_at) / Fold change /veh OR4N2 (11742367_at) / RFU PRRT2 (11749266_a_at) / Fold change /veh PRRT2 (11749266_a_at) / RFU SNX32 (11753110_a_at) / Fold change /veh SNX32 (11753110_a_at) / RFU CDHR5 (11726645_a_at) / Fold change /veh CDHR5 (11726645_a_at) / RFU RCAN1 (11760418_a_at) / Fold change /veh RCAN1 (11760418_a_at) / RFU FAM167A (11723789_a_at) / Fold change /veh FAM167A (11723789_a_at) / RFU FAM26E (11764081_at) / Fold change /veh FAM26E (11764081_at) / RFU ISYNA1 (11749810_s_at) / Fold change /veh ISYNA1 (11749810_s_at) / RFU ACY1 (11761880_at) / Fold change /veh ACY1 (11761880_at) / RFU 11764098_at / Fold change /veh 11764098_at / RFU SAMD14 (11745864_x_at) / Fold change /veh SAMD14 (11745864_x_at) / RFU NPB (11741838_a_at) / Fold change /veh NPB (11741838_a_at) / RFU TMPRSS6 (11731388_a_at) / Fold change /veh TMPRSS6 (11731388_a_at) / RFU KRTAP10-2 (11738614_at) / Fold change /veh KRTAP10-2 (11738614_at) / RFU ARHGAP8 /// PRR5-ARHGAP8 (11727945_x_at) / Fold change /veh ARHGAP8 /// PRR5-ARHGAP8 (11727945_x_at) / RFU KRTAP5-7 /// NADSYN1 (11734609_at) / Fold change /veh KRTAP5-7 /// NADSYN1 (11734609_at) / RFU RASL12 (11751679_a_at) / Fold change /veh RASL12 (11751679_a_at) / RFU CDKN2B (11736163_a_at) / Fold change /veh CDKN2B (11736163_a_at) / RFU PRF1 (11729649_at) / Fold change /veh PRF1 (11729649_at) / RFU, ZNF638 /// ZNF638-IT1 / Fold change vs veh, ZNF638 /// ZNF638-IT1 / RFU, PANK3 / Fold change vs veh, PANK3 / RFU, SH3YL1 / Fold change vs veh, SH3YL1 / RFU, ZEB2 / Fold change vs veh, ZEB2 / RFU, NRIP1 / Fold change vs veh, NRIP1 / RFU, PTTG1IP / Fold change vs veh, PTTG1IP / RFU, CAPN2 / Fold change vs veh, CAPN2 / RFU, MED14 / Fold change vs veh, MED14 / RFU, SNORA58 / Fold change vs veh, SNORA58 / RFU, C1orf63 / Fold change vs veh, C1orf63 / RFU, LRRFIP1 / Fold change vs veh, LRRFIP1 / RFU, NDUFAF7 / Fold change vs veh, NDUFAF7 / RFU, SLC12A2 / Fold change vs veh, SLC12A2 / RFU, IBTK / Fold change vs veh, IBTK / RFU, ESF1 / Fold change vs veh, ESF1 / Fold change vs veh, TMEM50B / RFU, TAOK1 / Fold change vs veh, TAOK1 / RFU, ACBD3 / Fold change vs veh, ACBD3 / RFU, TMA16 / Fold change vs veh, TMA16 / RFU, RWDD3 / Fold change vs veh, RWDD3 / RFU, BCAT1 / Fold change vs veh, BCAT1 / RFU, EDEM3 / Fold change vs veh, EDEM3 / RFU, TMEM33 / Fold change vs veh, TMEM33 / RFU, WDR75 / Fold change vs veh, WDR75 / RFU, AHCTF1 / Fold change vs veh, AHCTF1 / RFU, TFRC / Fold change vs veh, TFRC / RFU, ZDHHC17 / Fold change vs veh, ZDHHC17 / RFU, NOM1 / Fold change vs veh, NOM1 / RFU, ARL8B / Fold change vs veh, ARL8B / RFU, ZBTB11 / Fold change vs veh, ZBTB11 / RFU, TAMM41 / Fold change vs veh, TAMM41 / RFU, KIAA1704 /// LOC100996395 / Fold change vs veh, KIAA1704 /// LOC100996395 / RFU, ING1 / Fold change vs veh, ING1 / RFU, TRMT61B / Fold change vs veh, TRMT61B / RFU, FUBP3 / Fold change vs veh, FUBP3 / RFU, TP53 / Fold change vs veh, TP53 / RFU, TNKS2 / Fold change vs veh, TNKS2 / RFU, ZFP14 / Fold change vs veh, ZFP14 / RFU, ACTR2 / Fold change vs veh, ACTR2 / RFU, PPP3R1 / Fold change vs veh, PPP3R1 / RFU, PIK3R1 / Fold change vs veh, PIK3R1 / RFU, HNRNPA1 / Fold change vs veh, HNRNPA1 / RFU, RNF170 / Fold change vs veh, RNF170 / RFU, ZNF28 / Fold change vs veh, ZNF28 / RFU, RNGTT / Fold change vs veh, RNGTT / RFU, OGT / Fold change vs veh, OGT / RFU, BRD1 / Fold change vs veh, BRD1 / RFU, MARS / Fold change vs veh, MARS / RFU, ZNF655 / Fold change vs veh, ZNF655 / RFU, FAHD1 / Fold change vs veh, FAHD1 / RFU, BDP1 / Fold change vs veh, BDP1 / RFU, LRRCC1 / Fold change vs veh, LRRCC1 / RFU, ARID1A / Fold change vs veh, ARID1A / RFU, ZNF146 / Fold change vs veh, ZNF146 / RFU, ZNF330 / Fold change vs veh, ZNF330 / RFU, GPN3 / Fold change vs veh, GPN3 / RFU, C9orf123 / Fold change vs veh, C9orf123 / RFU, N4BP2L2 / Fold change vs veh, N4BP2L2 / RFU, ARFIP1 / Fold change vs veh, ARFIP1 / RFU, FAM179B / Fold change vs veh, FAM179B / RFU, BCL10 / Fold change vs veh, BCL10 / RFU, UHRF1BP1L / Fold change vs veh, UHRF1BP1L / RFU, BET1 / Fold change vs veh, BET1 / RFU, CNOT2 / Fold change vs veh, CNOT2 / RFU, ZNF268 / Fold change vs veh, ZNF268 / Fold change vs veh, ZNF507 / RFU, DGCR2 / Fold change vs veh, DGCR2 / RFU, WDSUB1 / Fold change vs veh, WDSUB1 / Fold change vs veh, HSP90B1 /// MIR3652 / RFU, ADSS / Fold change vs veh, ADSS / RFU, GK / Fold change vs veh, GK / RFU, ZNF148 / Fold change vs veh, ZNF148 / RFU, TAF9 / Fold change vs veh, TAF9 / RFU, SLC1A5 / Fold change vs veh, SLC1A5 / RFU, SLMO2 / Fold change vs veh, SLMO2 / RFU, ABCC4 / Fold change vs veh, ABCC4 / RFU, LOC101060439 /// RAP1B / Fold change vs veh, LOC101060439 /// RAP1B / RFU, RFX7 / Fold change vs veh, RFX7 / RFU, GTPBP10 / Fold change vs veh, GTPBP10 / RFU, CNEP1R1 / Fold change vs veh, CNEP1R1 / RFU, BIVM-ERCC5 /// ERCC5 / Fold change vs veh, BIVM-ERCC5 /// ERCC5 / RFU, ILF3 / Fold change vs veh, ILF3 / RFU 11762660_at / Fold change /veh 11762660_at / RFU VCAN (11757783_s_at) / Fold change /veh VCAN (11757783_s_at) / RFU DDX43 (11728927_at) / Fold change /veh DDX43 (11728927_at) / RFU KRT8 (11758188_x_at) / Fold change /veh KRT8 (11758188_x_at) / RFU NKD1 (11759106_at) / Fold change /veh NKD1 (11759106_at) / RFU SRD5A1 (11742802_a_at) / Fold change /veh SRD5A1 (11742802_a_at) / RFU TPSAB1 /// TPSB2 (11721975_s_at) / Fold change /veh TPSAB1 /// TPSB2 (11721975_s_at) / RFU GSTM3 (11746129_a_at) / Fold change /veh GSTM3 (11746129_a_at) / RFU IL23R (11737362_x_at) / Fold change /veh IL23R (11737362_x_at) / RFU TMEM51 (11727254_a_at) / Fold change /veh TMEM51 (11727254_a_at) / RFU PIWIL2 (11732686_x_at) / Fold change /veh PIWIL2 (11732686_x_at) / RFU ORM1 (11744905_x_at) / Fold change /veh ORM1 (11744905_x_at) / RFU CCDC152 (11743942_at) / Fold change /veh CCDC152 (11743942_at) / RFU ECM1 (11717891_a_at) / Fold change /veh ECM1 (11717891_a_at) / RFU IL23R (11748794_a_at) / Fold change /veh IL23R (11748794_a_at) / RFU TNFAIP8L3 (11732012_x_at) / Fold change /veh TNFAIP8L3 (11732012_x_at) / RFU MBOAT4 (11741988_at) / Fold change /veh MBOAT4 (11741988_at) / RFU 11764193_at / Fold change /veh 11764193_at / RFU TMEM53 (11763286_at) / Fold change /veh TMEM53 (11763286_at) / RFU MAGEB2 (11727129_at) / Fold change /veh MAGEB2 (11727129_at) / RFU TMEM200A (11744735_a_at) / Fold change /veh TMEM200A (11744735_a_at) / RFU CCDC152 (11751479_a_at) / Fold change /veh CCDC152 (11751479_a_at) / RFU FAM211A (11726209_a_at) / Fold change /veh FAM211A (11726209_a_at) / RFU RGS16 (11746705_a_at) / Fold change /veh RGS16 (11746705_a_at) / RFU VCAN (11755009_s_at) / Fold change /veh VCAN (11755009_s_at) / RFU RHOB (11743442_s_at) / Fold change /veh RHOB (11743442_s_at) / RFU RGS16 (11720943_a_at) / Fold change /veh RGS16 (11720943_a_at) / RFU RGS16 (11720944_at) / Fold change /veh RGS16 (11720944_at) / RFU, VPS4B / Fold change vs veh, VPS4B / RFU, CREB1 / Fold change vs veh, CREB1 / RFU, DNAJC13 / Fold change vs veh, DNAJC13 / RFU, GNAQ / Fold change vs veh, GNAQ / RFU, CDK5R1 / Fold change vs veh, CDK5R1 / RFU, ZRANB3 / Fold change vs veh, ZRANB3 / RFU, CUL4A / Fold change vs veh, CUL4A / RFU, CCNY / Fold change vs veh, CCNY / RFU, UFL1 / Fold change vs veh, UFL1 / RFU, COG3 / Fold change vs veh, COG3 / RFU, DIAPH2 / Fold change vs veh, DIAPH2 / RFU, SKA2 / Fold change vs veh, SKA2 / RFU, AFF3 / Fold change vs veh, AFF3 / RFU, LMF1 / Fold change vs veh, LMF1 / RFU, IPO11 / Fold change vs veh, IPO11 / RFU, DFFB / Fold change vs veh, DFFB / RFU, FOXP1 / Fold change vs veh, FOXP1 / RFU, CARD8 / Fold change vs veh, CARD8 / RFU, STRN3 / Fold change vs veh, STRN3 / RFU, ADK / Fold change vs veh, ADK / RFU, RASSF2 / Fold change vs veh, RASSF2 / RFU, WIPF1 / Fold change vs veh, WIPF1 / RFU, LARP1B / Fold change vs veh, LARP1B / RFU, RASA1 / Fold change vs veh, RASA1 / RFU, RB1 / Fold change vs veh, RB1 / RFU, PPFIA1 / Fold change vs veh, PPFIA1 / RFU, MAT2A / Fold change vs veh, MAT2A / RFU, CCT5 / Fold change vs veh, CCT5 / RFU, WDR92 / Fold change vs veh, WDR92 / RFU, CUX1 / Fold change vs veh, CUX1 / RFU, TTC7A / Fold change vs veh, TTC7A / RFU, TMEM135 / Fold change vs veh, TMEM135 / RFU, DEPTOR / Fold change vs veh, DEPTOR / RFU, CPM / Fold change vs veh, CPM / RFU, DNAJB6 / Fold change vs veh, DNAJB6 / RFU, CACNA2D3 / Fold change vs veh, CACNA2D3 / RFU, DTX4 / Fold change vs veh, DTX4 / RFU, TFCP2 / Fold change vs veh, TFCP2 / RFU, GMCL1 /// GMCL1P1 / Fold change vs veh, GMCL1 /// GMCL1P1 / RFU, AEBP2 / Fold change vs veh, AEBP2 / RFU, SNHG1 /// SNORD22 /// SNORD25 /// SNORD26 /// SNORD27 /// SNORD28 /// SNORD29 /// SNORD31 / Fold change vs veh, SNHG1 /// SNORD22 /// SNORD25 /// SNORD26 /// SNORD27 /// SNORD28 /// SNORD29 /// SNORD31 / Fold change (Aza/veh), C12orf56 (ProbeSet 11735607_a_at) / Fold change (ACY-1035/veh), C12orf56 (ProbeSet 11735607_a_at) / Fold change (Aza/veh), FGFR1OP (ProbeSet 11751329_s_at) / Fold change (ACY-1035/veh), FGFR1OP (ProbeSet 11751329_s_at) / Fold change (Aza/veh), VPS36 (ProbeSet 11739960_a_at) / Fold change (ACY-1035/veh), VPS36 (ProbeSet 11739960_a_at) / RFU SYPL1 (11715823_x_at) / Fold change /veh SYPL1 (11715823_x_at) / RFU IGFBP7 (11715501_s_at) / Fold change /veh IGFBP7 (11715501_s_at) / RFU REEP3 (11722064_at) / Fold change /veh REEP3 (11722064_at) / RFU IGLL1 (11728026_x_at) / Fold change /veh IGLL1 (11728026_x_at): dose or concentration left out as unconfirmed
# Details: ProbeSet 11725901_x_at; LIST B
smiles,measurement,value
Nc1ccc(-c2cccs2)cc1NC(=O)c1ccc2c(c1)cc(C1CC1)n2CCN1CCOCC1 [ACY-1035],"Fold change vs veh, RWDD3",0.90
